Patent publication US6506799B1, “Methods of treating cardiovascular diseases, dyslipidemia, dyslipoproteinemia, and hypertension with ether compounds” (Esperion Therapeutics, Inc., priority 1999, dated 2003)

Assays:
female obese Zucker rats = experiment: Experiment A: serum lipids, glucose, non-esterified fatty acids and weight gain in obese female Zucker rats after seven days; assay type: in vivo, rat; details: 86 mg/kg
Method: Dosing vehicle, Compound A (86 mg/kg of body weight) or troglitazone (120 mg/kg of body weight) was administered to eight week old female obese Zucker rats daily for seven days in the morning by oral gavage in 1.5% carboxymethylcellulose/0.2% Tween-20. Troglitazone was obtained commercially. Finely crushed tablets were suspended in vehicle for dosing. Orbital blood samples were obtained following a six-hour fast prior to the initial dose and also following the seventh dose.
Blood serum was assayed for total cholesterol and triglycerides (FIG. 5), lipoprotein cholesterol profiles (FIG. 6), VLDL plus LDL cholesterol combined (also referred to as apo B containing lipoprotein cholesterol or non-HDL cholesterol), HDL cholesterol, and the ratio of HDL cholesterol to that of VLDL plus LDL cholesterol (FIG. 7), serum glucose, and non-esterified fatty acids (FIG. 8), and percent weight gain (FIG. 9). […] In particular, Compound A caused a marked elevation in HDL cholesterol after one week of treatment. Using the serum total cholesterol values (FIG. 5A) and the lipoprotein cholesterol distribution (FIG. 6), the amount of cholesterol associated with non-HDL (i.e., VLDL plus LDL) and HDL were determined (FIG. 7). […] In contrast, troglitazone reduced non-HDL and HDL cholesterol by 67% and 4%, respectively.

primary rat hepatocytes = experiment: Synthesis of non-saponified and saponified lipids (14C-acetate incorporation) in hepatocytes; assay type: cell-based; details: 100 μM; 14C-acetate 2 hr; vs no compound control
Method: A male Sprague-Dawley rat was anesthetized by administration of sodium pentobarbitol by intraparitoneal injection at 50 mg/kg. In situ perfusion of the liver was performed as follows. […] To digest the liver, DSC solution (6.7 mM KCl, 143 mM NaCl, 9.2 mM Na HEPES, 5 mM CaCl2-2H2O, 1.7 mM Fructose, 0.029 mM Phenol red, 0.2% BSA, 100 U/ml collagenase Type I, 93 U/ml Hyaluronidase, 160 BAEE/ml trypsin inhibitor, pH 7.5) was perfused through the liver at a flow rate of 30 ml/min for 6 minutes at a temperature of 37° C. After digestion, cells were dispersed in a solution of DMEM-(DMEM containing 2 mM GlutMax-1, 0.2% BSA, 5% FBS, 12 nM insulin, 1.2 μM hydrocortisone) to stop the digestion process. The crude cell suspension was filtered through three layers of stainless steel mesh with pore sizes of 250, 106, and 75 μm respectively. Filtered cells were centrifuged at 50×g for two minutes and the supernatant discarded. The resulting cell pellet was resuspended in DMEM and centrifuged again. This final cell pellet was resuspended in DMEM+HS solution (DMEM containing 2 mM GlutMax-1, 20 nM delta-aminolevulinic acid, 17.4 mM MEM non-essential amino acids, 20% FBS, 12 nM insulin, 1.2 µM hydrocortisone) and plated to form monolayer cultures at a density of 100×10^3 cells/cm^2 on collagen coated culture dishes. Four hours after initial plating, media was changed to DMEM+(DMEM containing 2 mM GlutMax-1, 20 nM delta-aminolevulinic acid, 17.4 mM MEM non-essential amino acids, 10% FBS, 12 nM insulin, 1.2 μM hydrocortisone) and remained on cells overnight.
To test the effect of illustrative compounds of the invention on synthesis rates of non-saponified and saponified lipids, the monolayer cultures were exposed to 1 μM of lovastatin or 100 μM Compound A, B, D, E or F in DMEM+ containing 1 μCi/ml ^14C-acetate. Control cells were exposed to the same media lacking lovastatin or the test compounds. All cells were exposed to 0.1% DMSO. Metabolic labeling with ^14C-acetate continued for 2 hr at 37° C. After labeling, cells were washed twice with 1 ml of PBS followed by lysing in 1 ml of deionized water. Cells were scraped from the dishes, transferred to glass tubes and sonicated. 2.5 ml of 2:1 chloroform/methanol mixture was added followed by 1.5 ml of Phosphate Buffered Saline (PBS). To correct for extraction efficiency in the upcoming extractions, 3000 dpm of ^3H-cholesterol was added to each tube. Tubes were shaken for 30 min. to extract lipids into the organic phase followed by centrifugation for 10 minutes at 1000×g to separate the organic and aqueous phases. The lower organic phase containing total lipids was removed and placed in a new tube. The organic solution was evaporated under N2. […]

[1] = tested on: LDL receptor deficient mice; experiment: Lipoprotein cholesterol profile in LDL receptor-deficient mice; assay type: in vivo; details: 300 mg/kg/day, chow-fed female mice
Text: The effect of Compound A on LDL levels in a murine model of homozygous familial hypercholesterolemia (Ishibashi et al., 1993, J. Clin. Invest. 92:883-893; Ishibashi et al., 1994, J. Clin. Invest. 93:1885-1893) was studied. LDL receptor-deficient mice have elevated LDL cholesterol relative to wild type mice when fed a chow diet. When fed cholesterol-enriched diets, these mice develop atherosclerosis.

## CC(C)(CO)CCCCOCCCCC(C)(C)CO [Compound A, 6-(6-hydroxy-5,5-dimethylhexyloxy)-2,2-dimethyl-hexan-1-ol]
Female obese Zucker rats; one week
  change of non-HDL cholesterol (VLDL plus LDL): +10.3%
  increase of HDL cholesterol: 3.9 fold
  reduction of non-esterified fatty acids: 52%
  reduction of serum triglycerides: 68%
  serum glucose: did not induce a hypoglycemic state
Female obese Zucker rats; one week treatment, pre-treatment 4.2
  ratio of HDL/non-HDL cholesterol: 14.9
Female obese Zucker rats; one week, vs pre-treatment
  increase of the ratio of HDL/non-HDL cholesterol: 3.6 fold
  increase of total serum cholesterol: 3.3 fold
Female obese Zucker rats; seven days, vehicle 6.6%
  increase in body weight: 5.4%
Primary rat hepatocytes
  reduction of the rate of non-saponified lipid synthesis: at least 85%
  reduction of the rate of saponified lipid synthesis: at least 85%
[1]; after one week of treatment
  LDL cholesterol: rapid and significant reduction
[1]; seven daily treatments
  HDL: HDL elevation in all treated mice
